Reference: patent publication US20250145665A1, “MACROCYCLIC PEPTIDES USEFUL AS MODULATORS OF TNF ALPHA” (Bristol-Myers Squibb Company, priority 2023, published 2025)
pIC50: −log10 of the molar value. Starred links: 1 amine or outer side, 2 acyl side, 3 side chain; linkers in the order of their positions; H or OH if unused. Positions of bridges follow the written chain, without caps; N, C: chain ends. Non-standard residues stand in square brackets, D forms with d. Residues, ends and D or L forms follow the SMILES beside them. *: point of attachment. Bip(4'-NHCO-C6H4-4-CH2COOH) = N[C@@H](Cc1ccc(-c2ccc(NC(=O)c3ccc(CC(=O)O)cc3)cc2)cc1)C(=O)O; X56 = O=C(O)COc1cccc(NC(=O)c2ccc(-c3ccc(C[C@H](N[*:1])C(=O)[*:2])cc3)cc2)c1; X65 = O=C(O)Cc1cccc(NC(=O)c2ccc(-c3ccc(C[C@H](N[*:1])C(=O)[*:2])cc3)cc2)c1; X21 = N=C(NCCC[C@@H](N[*:1])C(=O)[*:2])NC[C@H](O)[C@@H](O)[C@@H](O)CO; dArg(ω-(2S)-2,3-diOHpropyl) = N=C(NCCC[C@@H](N)C(=O)O)NC[C@H](O)CO; Bip(4'-NH) = O=C([C@H](Cc1ccc(-c2ccc(N[*:3])cc2)cc1)N[*:1])[*:2]; dArg(ω-(3-HO-benzyl)) = N=C(NCCC[C@@H](N)C(=O)O)NCc1cccc(O)c1; Indazole3carbonyl(1-CH2COOH) = O=C(O)Cn1nc(C(=O)*)c2ccccc21; Bip(4'-COOH) = N[C@@H](Cc1ccc(-c2ccc(C(=O)O)cc2)cc1)C(=O)O; Indole3carbonyl(1-CH2COOH) = O=C(O)Cn1cc(C(=O)*)c2ccccc21; X68 = N=C(NCCC[C@@H](N[*:1])C(=O)[*:2])NCc1ccc(O)c(O)c1; X69 = N=C(NCCC[C@@H](N[*:1])C(=O)[*:2])NCc1cccc(N)c1; Ala(imidazol-2-yl) = N[C@@H](Cc1ncc[nH]1)C(=O)O; dArg(ω-Bn) = N=C(NCCC[C@@H](N)C(=O)O)NCc1ccccc1; Ala(morpholin-4-yl) = N[C@@H](CN1CCOCC1)C(=O)O; Benzoyl(3-OCH2COOH) = O=C(O)COc1cccc(C(=O)*)c1; Phe(3-CONH2) = NC(=O)c1cccc(C[C@H](N)C(=O)O)c1; Bip = N[C@@H](Cc1ccc(-c2ccccc2)cc1)C(=O)O; 2Pal = N[C@@H](Cc1ccccn1)C(=O)O; 2Thi = N[C@@H](Cc1cccs1)C(=O)O; Cha = N[C@@H](CC1CCCCC1)C(=O)O; Sar = CNCC(=O)O

Target: TNFα (Homo sapiens, UniProt P01375)
Sequence (P01375 77-233 limits assumed): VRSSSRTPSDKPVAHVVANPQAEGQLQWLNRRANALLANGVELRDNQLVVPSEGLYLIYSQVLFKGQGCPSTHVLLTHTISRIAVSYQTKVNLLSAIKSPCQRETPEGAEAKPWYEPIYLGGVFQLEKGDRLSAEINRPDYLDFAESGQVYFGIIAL
Assay: TNF-Induced HEK-Blue Assay
Format: cell-based
Conditions: not given

SMILES	pIC50
CC(C)C[C@@H]1NC(=O)[C@H](Cc2cnc[nH]2)NC(=O)[C@H](C(C)C)NC(=O)[C@@H]2CCCN2C(=O)[C@H](C(C)C)NC(=O)[C@@H](CCCNC(=N)NCc2ccccc2)NC(=O)[C@H](CC(=O)O)NC(=O)[C@H](Cc2ccccn2)NC(=O)CN(C)C(=O)[C@H](Cc2ccc(-c3ccc(NC(=O)c4cn(CC(=O)O)c5ccccc45)cc3)cc2)NC(=O)[C@H](Cc2ccc(-c3ccccc3)cc2)NC(=O)[C@H](CN2CCOCC2)NC(=O)CSC[C@@H](C(=O)NCC(N)=O)NC1=O [Example 629] ({CH2CO}-[Ala(morpholin-4-yl)][Bip][Bip(4'-NH)](Indole3carbonyl(1-CH2COOH))[Sar][2Pal]D[dArg(ω-Bn)]VPVHLCG-NH2; thioether N-13)	6.70 to 7.30
CC(C)C[C@@H]1NC(=O)[C@H](CCCNC(=N)N)NC(=O)[C@H](C(C)C)NC(=O)[C@@H]2CCCN2C(=O)[C@H](C(C)C)NC(=O)[C@@H](CCCNC(=N)NCc2ccc(O)c(O)c2)NC(=O)[C@H](CC(=O)O)NC(=O)[C@@H]2CCCN2C(=O)CN(C)C(=O)[C@H](Cc2ccc(-c3ccc(NC(=O)c4nn(CC(=O)O)c5ccccc45)cc3)cc2)NC(=O)[C@H](Cc2ccc(-c3ccccc3)cc2)NC(=O)[C@H](CN2CCOCC2)NC(=O)CSC[C@@H](C(=O)NCC(N)=O)NC1=O [Example 635] ({CH2CO}-[Ala(morpholin-4-yl)][Bip][Bip(4'-NH)](Indazole3carbonyl(1-CH2COOH))[Sar]PD[X68]VPVRLCG-NH2; thioether N-13)	> 7.30
CC(C)C[C@@H]1NC(=O)[C@H](CCCNC(=N)N)NC(=O)[C@H](C(C)C)NC(=O)[C@@H]2CCCN2C(=O)[C@H](C(C)C)NC(=O)[C@@H](CCCNC(=N)NCc2cccc(N)c2)NC(=O)[C@H](CC(=O)O)NC(=O)[C@@H]2CCCN2C(=O)CN(C)C(=O)[C@H](Cc2ccc(-c3ccc(NC(=O)c4nn(CC(=O)O)c5ccccc45)cc3)cc2)NC(=O)[C@H](Cc2ccc(-c3ccccc3)cc2)NC(=O)[C@H](CN2CCOCC2)NC(=O)CSC[C@@H](C(=O)NCC(N)=O)NC1=O [Example 636] ({CH2CO}-[Ala(morpholin-4-yl)][Bip][Bip(4'-NH)](Indazole3carbonyl(1-CH2COOH))[Sar]PD[X69]VPVRLCG-NH2; thioether N-13)	> 7.30
CC[C@H](C)[C@@H]1NC(=O)[C@@H](CCCNC(=N)NCc2cccc(O)c2)NC(=O)[C@H](CC(=O)O)NC(=O)[C@@H]2CCCN2C(=O)CN(C)C(=O)[C@H](Cc2ccc(-c3ccc(NC(=O)c4nn(CC(=O)O)c5ccccc45)cc3)cc2)NC(=O)[C@H](Cc2ccc(-c3ccccc3)cc2)NC(=O)[C@H](CN2CCOCC2)NC(=O)CSC[C@@H](C(=O)NCC(N)=O)NC(=O)[C@H](CC(C)C)NC(=O)[C@H](Cc2cnc[nH]2)NC(=O)[C@H](C(C)C)NC(=O)[C@@H]2CCCN2C1=O [Example 637] ({CH2CO}-[Ala(morpholin-4-yl)][Bip][Bip(4'-NH)](Indazole3carbonyl(1-CH2COOH))[Sar]PD[dArg(ω-(3-HO-benzyl))]IPVHLCG-NH2; thioether N-13)	> 7.30
CC(C)C[C@@H]1NC(=O)[C@H](Cc2cccs2)NC(=O)[C@H](C(C)C)NC(=O)[C@@H]2CCCN2C(=O)[C@H](C(C)C)NC(=O)[C@@H](CCCNC(=N)NCc2ccccc2)NC(=O)[C@H](CC(=O)O)NC(=O)[C@H](Cc2ccccn2)NC(=O)CN(C)C(=O)[C@H](Cc2ccc(-c3ccc(NC(=O)c4nn(CC(=O)O)c5ccccc45)cc3)cc2)NC(=O)[C@H](Cc2ccc(-c3ccccc3)cc2)NC(=O)[C@H](CN2CCOCC2)NC(=O)CSC[C@@H](C(=O)NCC(N)=O)NC1=O [Example 638] ({CH2CO}-[Ala(morpholin-4-yl)][Bip][Bip(4'-NH)](Indazole3carbonyl(1-CH2COOH))[Sar][2Pal]D[dArg(ω-Bn)]VPV[2Thi]LCG-NH2; thioether N-13)	> 7.30
CC(C)C[C@@H]1NC(=O)[C@H](Cc2cccs2)NC(=O)[C@H](C(C)C)NC(=O)[C@@H]2CCCN2C(=O)[C@H](C(C)C)NC(=O)[C@@H](CCCNC(=N)NC[C@H](O)CO)NC(=O)[C@H](CC(=O)O)NC(=O)[C@H](Cc2ccccn2)NC(=O)CN(C)C(=O)[C@H](Cc2ccc(-c3ccc(NC(=O)c4nn(CC(=O)O)c5ccccc45)cc3)cc2)NC(=O)[C@H](Cc2ccc(-c3ccccc3)cc2)NC(=O)[C@H](CN2CCOCC2)NC(=O)CSC[C@@H](C(=O)NCC(N)=O)NC1=O [Example 639] ({CH2CO}-[Ala(morpholin-4-yl)][Bip][Bip(4'-NH)](Indazole3carbonyl(1-CH2COOH))[Sar][2Pal]D[dArg(ω-(2S)-2,3-diOHpropyl)]VPV[2Thi]LCG-NH2; thioether N-13)	> 7.30
CC(C)C[C@@H]1NC(=O)[C@H](Cc2cccs2)NC(=O)[C@H](C(C)C)NC(=O)[C@@H]2CCCN2C(=O)[C@H](C(C)C)NC(=O)[C@@H](CCCNC(=N)NC[C@H](O)[C@@H](O)[C@@H](O)CO)NC(=O)[C@H](CC(=O)O)NC(=O)[C@H](Cc2ccccn2)NC(=O)CN(C)C(=O)[C@H](Cc2ccc(-c3ccc(NC(=O)c4nn(CC(=O)O)c5ccccc45)cc3)cc2)NC(=O)[C@H](Cc2ccc(-c3ccccc3)cc2)NC(=O)[C@H](CN2CCOCC2)NC(=O)CSC[C@@H](C(=O)NCC(N)=O)NC1=O [Example 640] ({CH2CO}-[Ala(morpholin-4-yl)][Bip][Bip(4'-NH)](Indazole3carbonyl(1-CH2COOH))[Sar][2Pal]D[X21]VPV[2Thi]LCG-NH2; thioether N-13)	6.70 to 7.30

Same assay, conditions: HEK-Blue-CD40L cells, NF-kB-driven secreted alkaline phosphatase reporter; TNFα 0.5 ng/ml; 18 h; read-out: TNF induced HEK-Blue assay IC50 value

SMILES	pIC50
CC[C@H](C)[C@@H]1NC(=O)[C@@H](CCCNC(=N)N)NC(=O)[C@H](CC(=O)O)NC(=O)[C@H](Cc2cnc[nH]2)NC(=O)CN(C)C(=O)[C@H](Cc2ccc(-c3ccc(C(=O)Nc4cccc(CC(=O)O)c4)cc3)cc2)NC(=O)[C@H](Cc2ccc(-c3ccc(C(=O)O)cc3)cc2)NC(=O)[C@H](CC2CCCCC2)NC(=O)CSC[C@@H](C(=O)NCC(N)=O)NC(=O)[C@H](CC(C)C)NC(=O)[C@H](Cc2cnc[nH]2)NC(=O)[C@H](C(C)C)NC(=O)[C@@H]2CCCN2C1=O [Example 630] ({CH2CO}-[Cha][Bip(4'-COOH)][X65][Sar]HD[dR]IPVHLCG-NH2; thioether N-13)	6.70 to 7.30
CC[C@H](C)[C@@H]1NC(=O)[C@@H](CCCNC(=N)N)NC(=O)[C@H](CC(=O)O)NC(=O)[C@H](Cc2cnc[nH]2)NC(=O)CN(C)C(=O)[C@H](Cc2ccc(-c3ccc(C(=O)Nc4cccc(OCC(=O)O)c4)cc3)cc2)NC(=O)[C@H](Cc2ccc(-c3ccccc3)cc2)NC(=O)[C@H](Cc2cccc(C(N)=O)c2)NC(=O)CSC[C@@H](C(=O)NCC(N)=O)NC(=O)[C@H](CC(C)C)NC(=O)[C@H](Cc2cnc[nH]2)NC(=O)[C@H](C(C)C)NC(=O)[C@@H]2CCCN2C1=O [Example 631] ({CH2CO}-[Phe(3-CONH2)][Bip][X56][Sar]HD[dR]IPVHLCG-NH2; thioether N-13)	6.70 to 7.30
CC[C@H](C)[C@@H]1NC(=O)[C@@H](CCCNC(=N)N)NC(=O)[C@H](CC(=O)O)NC(=O)[C@H](Cc2cnc[nH]2)NC(=O)CN(C)C(=O)[C@H](Cc2ccc(-c3ccc(C(=O)Nc4cccc(OCC(=O)O)c4)cc3)cc2)NC(=O)[C@H](Cc2ccc(-c3ccc(C(=O)O)cc3)cc2)NC(=O)[C@H](Cc2cccc(C(N)=O)c2)NC(=O)CSC[C@@H](C(=O)NCC(N)=O)NC(=O)[C@H](CC(C)C)NC(=O)[C@H](Cc2cnc[nH]2)NC(=O)[C@H](C(C)C)NC(=O)[C@@H]2CCCN2C1=O [Example 632] ({CH2CO}-[Phe(3-CONH2)][Bip(4'-COOH)][X56][Sar]HD[dR]IPVHLCG-NH2; thioether N-13)	6.70 to 7.30
CC[C@H](C)[C@@H]1NC(=O)[C@@H](CCCNC(=N)N)NC(=O)[C@H](CC(=O)O)NC(=O)[C@H](Cc2cnc[nH]2)NC(=O)CN(C)C(=O)[C@H](Cc2ccc(-c3ccc(C(=O)Nc4cccc(CC(=O)O)c4)cc3)cc2)NC(=O)[C@H](Cc2ccc(-c3ccc(C(=O)O)cc3)cc2)NC(=O)[C@H](Cc2cccc(C(N)=O)c2)NC(=O)CSC[C@@H](C(=O)NCC(N)=O)NC(=O)[C@H](CC(C)C)NC(=O)[C@H](Cc2cnc[nH]2)NC(=O)[C@H](C(C)C)NC(=O)[C@@H]2CCCN2C1=O [Example 634] ({CH2CO}-[Phe(3-CONH2)][Bip(4'-COOH)][X65][Sar]HD[dR]IPVHLCG-NH2; thioether N-13)	6.70 to 7.30
CC(C)C[C@@H]1NC(=O)[C@H](Cc2ncc[nH]2)NC(=O)[C@H](C(C)C)NC(=O)[C@@H]2CCCN2C(=O)[C@H](C(C)C)NC(=O)[C@@H](CCCNC(=N)NCc2ccccc2)NC(=O)[C@H](CC(=O)O)NC(=O)[C@H](Cc2ccccn2)NC(=O)CN(C)C(=O)[C@H](Cc2ccc(-c3ccc(NC(=O)c4cccc(OCC(=O)O)c4)cc3)cc2)NC(=O)[C@H](Cc2ccc(-c3ccccc3)cc2)NC(=O)[C@H](CN2CCOCC2)NC(=O)CSC[C@@H](C(=O)NCC(N)=O)NC1=O [Example 641] ({CH2CO}-[Ala(morpholin-4-yl)][Bip][Bip(4'-NH)](Benzoyl(3-OCH2COOH))[Sar][2Pal]D[dArg(ω-Bn)]VPV[Ala(imidazol-2-yl)]LCG-NH2; thioether N-13)	6.70 to 7.30
CC(C)C[C@@H]1NC(=O)[C@H](Cc2ncc[nH]2)NC(=O)[C@H](C(C)C)NC(=O)[C@@H]2CCCN2C(=O)[C@H](C(C)C)NC(=O)[C@@H](CCCNC(=N)NCc2ccccc2)NC(=O)[C@H](CC(=O)O)NC(=O)[C@H](Cc2ccccn2)NC(=O)CN(C)C(=O)[C@H](Cc2ccc(-c3ccc(NC(=O)c4ccc(CC(=O)O)cc4)cc3)cc2)NC(=O)[C@H](Cc2ccc(-c3ccccc3)cc2)NC(=O)[C@H](CN2CCOCC2)NC(=O)CSC[C@@H](C(=O)NCC(N)=O)NC1=O [Example 642] ({CH2CO}-[Ala(morpholin-4-yl)][Bip][Bip(4'-NHCO-C6H4-4-CH2COOH)][Sar][2Pal]D[dArg(ω-Bn)]VPV[Ala(imidazol-2-yl)]LCG-NH2; thioether N-13)	5.70 to 6.70
